Tested on: Micrococcus luteus
Test: Antimicrobial activity against Micrococcus luteus ATCC 9341 assessed as zone of inhibition at 30 mg for 24 hrs at 30 degC by disk diffusion test
Format: functional
Details: ATCC 9341, 24 h, read-out: DIZ

| SMILES | zone of inhibition at 30000 µg/disc [mm] |
| --- | --- |
| CN(C)[C@@H]1C(O)=C(C(N)=O)C(=O)[C@@]2(O)C(O)=C3C(=O)c4c(O)cccc4[C@@](C)(O)[C@H]3C[C@@H]12 [TETRACYCLINE] | 26 |
| O=C(N[C@H](CO)[C@H](O)c1ccc([N+](=O)[O-])cc1)C(Cl)Cl [CHLORAMPHENICOL] | 25 |
